Measured values reported in BigSolDB 2.1.

Conditions: in water

N#CN=C(N)N
Conditions | solubility (mole fraction)
278.15 K | 0.00303
283.15 K | 0.00387
288.15 K | 0.00526
293.15 K | 0.00707
298.15 K | 0.00891
303.15 K | 0.0114
308.15 K | 0.0141
313.15 K | 0.0172
318.15 K | 0.021
323.15 K | 0.0265
